Experimental data published in PubChem BioAssay AID2060614 (Molecular Pharmacology Branch, DTP, NCI, 2025).
“And” between values parts separate entries of the source, which are not always exact repeats. Equal entries are not always repeated.

System: 598228-144-R-J1-PDC complex spheroids, viability
Assay: Anticancer human tumor 598228-144-R-J1-PDC patient-derived serous endometrial adenocarcinoma cell line growth inhibition [CLK]
Details: for viability, T/C: stronger effect = lower value
Method in brief: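 Multi-cell-type spheroids combined patient-derived tumor cells with HUVEC endothelial cells and human mesenchymal stem cells. Paired agents were dosed in half-log steps down from about clinical Cmax, or from 10 microM where Cmax was unknown.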

[1] = curve of first compound, second compound 0.0316 µM
[2] = curve of first compound, second compound 0.1 µM
[3] = curve of first compound, second compound 0.316 µM
[4] = curve of first compound, second compound 1 µM
[5] = curve of first compound, second compound 3.16 µM
[6] = curve of first compound, second compound 10 µM
[7] = second compound 0.0316 µM, first compound 0.0316 µM
[8] = second compound 0.0316 µM, first compound 0.1 µM
[9] = second compound 0.0316 µM, first compound 0.316 µM
[10] = second compound 0.0316 µM, first compound 1 µM
[11] = second compound 0.0316 µM, first compound 3.16 µM
[12] = second compound 0.0316 µM, first compound 10 µM
[13] = second compound 0.1 µM, first compound 0.0316 µM
[14] = second compound 0.1 µM, first compound 0.1 µM
[15] = second compound 0.1 µM, first compound 0.316 µM
[16] = second compound 0.1 µM, first compound 1 µM
[17] = second compound 0.1 µM, first compound 3.16 µM
[18] = second compound 0.1 µM, first compound 10 µM
[19] = second compound 0.316 µM, first compound 0.0316 µM
[20] = second compound 0.316 µM, first compound 0.1 µM
[21] = second compound 0.316 µM, first compound 0.316 µM
[22] = second compound 0.316 µM, first compound 1 µM
[23] = second compound 0.316 µM, first compound 3.16 µM
[24] = second compound 0.316 µM, first compound 10 µM
[25] = second compound 1 µM, first compound 0.0316 µM
[26] = second compound 1 µM, first compound 0.1 µM
[27] = second compound 1 µM, first compound 0.316 µM
[28] = second compound 1 µM, first compound 1 µM
[29] = second compound 1 µM, first compound 3.16 µM
[30] = second compound 1 µM, first compound 10 µM
[31] = second compound 3.16 µM, first compound 0.0316 µM
[32] = second compound 3.16 µM, first compound 0.1 µM
[33] = second compound 3.16 µM, first compound 0.316 µM
[34] = second compound 3.16 µM, first compound 1 µM
[35] = second compound 3.16 µM, first compound 3.16 µM
[36] = second compound 3.16 µM, first compound 10 µM
[37] = second compound 10 µM, first compound 0.0316 µM
[38] = second compound 10 µM, first compound 0.1 µM
[39] = second compound 10 µM, first compound 0.316 µM
[40] = second compound 10 µM, first compound 1 µM
[41] = second compound 10 µM, first compound 3.16 µM
[42] = second compound 10 µM, first compound 10 µM
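Note: spheroids exposed to compounds for seven days before readout.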
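Throughout, for viability, T/C: 100% = DMSO vehicle control wells.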

Work on `CC(=O)O[C@H]1C(=O)[C@@]2(C)[C@H]([C@H](OC(=O)c3ccccc3)[C@]3(O)C[C@H](OC(=O)[C@H](O)[C@@H](NC(=O)c4ccccc4)c4ccccc4)C(C)=C1C3(C)C)[C@]1(OC(C)=O)CO[C@@H]1C[C@@H]2O` + CN1CCN(c2cc(C(=O)Nc3cc4cc(-c5cnn(C)c5)ccc4cn3)ccn2)CC1 yielded an IC50 [1] of under 31.6 nM, an IC50 [2] of over 10000 nM and an IC50 [3] of under 31.6 nM. It also gave an IC50 [4] of under 31.6 nM, an IC50 [5] of under 31.6 nM and an IC50 [6] of under 31.6 nM. For the same compound, the viability, T/C [7] was 40.8%, the viability, T/C [8] was 44.8% and the viability, T/C [9] was 32.3%. The viability, T/C [10] was 34.3%, the viability, T/C [11] was 33.1% and the viability, T/C [12] was 37.7%. It also gave a viability, T/C [13] of 72.7%, a viability, T/C [14] of 61.2% and a viability, T/C [15] of 58.8%. It also gave a viability, T/C [16] of 64.5%, a viability, T/C [17] of 51.6% and a viability, T/C [18] of 51.1%. The viability, T/C [19] was 19%, the viability, T/C [20] was 15.1% and the viability, T/C [21] was 20.1%. For the same compound, the viability, T/C [22] was 14.2%, the viability, T/C [23] was 18% and the viability, T/C [24] was 18.5%. For the same compound, the viability, T/C [25] was 1.6%, the viability, T/C [26] was 1.9% and the viability, T/C [27] was 4.17%. For the same compound, the viability, T/C [28] was 1.92%, the viability, T/C [29] was 2.39% and the viability, T/C [30] was 1.8%. For the same compound, the viability, T/C [31] was 1.6%, the viability, T/C [32] was 3.09% and the viability, T/C [33] was 2.8%. It also gave a viability, T/C [34] of 1.31%, a viability, T/C [35] of 1.95% and a viability, T/C [36] of 2.83%. It also gave a viability, T/C [37] of 2.83%, a viability, T/C [38] of 0.86% and a viability, T/C [39] of 2.92%. It also gave a viability, T/C [40] of 1.09%, a viability, T/C [41] of 2.45% and a viability, T/C [42] of 2.11%.
In the case of `COc1cccc2c1C(=O)c1c(O)c3c(c(O)c1C2=O)CC(O)(C(=O)CO)CC3OC1CC(N)C(O)C(C)O1` (stereo not drawn) + CNC(=O)c1ccc(Nc2nc(OC3CCCC3)c3c(-c4ccc5nc(C)oc5c4)c[nH]c3n2)c(OC)c1, the IC50 [1] is reported as 247 nM, the IC50 [2] is reported as 254 nM and the IC50 [3] is reported as 227 nM. It also gave an IC50 [4] of 162 nM, an IC50 [5] of 101 nM and an IC50 [6] of 105 nM. For the same compound, the viability, T/C [7] was 102%, the viability, T/C [8] was 83.6% and the viability, T/C [9] was 40.4%. For the same compound, the viability, T/C [10] was 11.3%, the viability, T/C [11] was 0.76% and the viability, T/C [12] was 0.83%. The viability, T/C [13] was 122%, the viability, T/C [14] was 106% and the viability, T/C [15] was 36.5%. It also gave a viability, T/C [16] of 7.7%, a viability, T/C [17] of 0.47% and a viability, T/C [18] of 1.08%. It also gave a viability, T/C [19] of 123%, a viability, T/C [20] of 128% and a viability, T/C [21] of 19.1%. The viability, T/C [22] was 4.16%, the viability, T/C [23] was 0.73% and the viability, T/C [24] was 4.66%. It also gave a viability, T/C [25] of 121%, a viability, T/C [26] of 76.1% and a viability, T/C [27] of 14.2%. For the same compound, the viability, T/C [28] was 1.56%, the viability, T/C [29] was 0.81% and the viability, T/C [30] was 0.82%. For the same compound, the viability, T/C [31] was 110%, the viability, T/C [32] was 49.8% and the viability, T/C [33] was 17.1%. The viability, T/C [34] was 1.2%, the viability, T/C [35] was 2.45% and the viability, T/C [36] was 1.09%. For the same compound, the viability, T/C [37] was 103%, the viability, T/C [38] was 51.7% and the viability, T/C [39] was 11.6%. The viability, T/C [40] was 1.39%, the viability, T/C [41] was 1.63% and the viability, T/C [42] was 2.68%.
Work on `Nc1ccn(C2OC(CO)C(O)C2(F)F)c(=O)n1` (stereo not drawn) + CN1CCN(c2cc(C(=O)Nc3cc4cc(-c5cnn(C)c5)ccc4cn3)ccn2)CC1 yielded an IC50 [1] of under 31.6 nM, an IC50 [2] of under 31.6 nM and an IC50 [3] of under 31.6 nM. The IC50 [4] was under 31.6 nM, the IC50 [5] was under 31.6 nM and the IC50 [6] was under 31.6 nM. The viability, T/C [7] was 42.6%, the viability, T/C [8] was 23.5% and the viability, T/C [9] was 24.3%. For the same compound, the viability, T/C [10] was 21.2%, the viability, T/C [11] was 23.4% and the viability, T/C [12] was 28.3%. The viability, T/C [13] was 46.5%, the viability, T/C [14] was 26.8% and the viability, T/C [15] was 25.4%. For the same compound, the viability, T/C [16] was 28.5%, the viability, T/C [17] was 28.5% and the viability, T/C [18] was 29.5%. The viability, T/C [19] was 18%, the viability, T/C [20] was 16.9% and the viability, T/C [21] was 14%. It also gave a viability, T/C [22] of 15.4%, a viability, T/C [23] of 17% and a viability, T/C [24] of 16.9%. The viability, T/C [25] was 3.9%, the viability, T/C [26] was 1.1% and the viability, T/C [27] was 2.41%. The viability, T/C [28] was 1.35%, the viability, T/C [29] was 2.84% and the viability, T/C [30] was 4.14%. For the same compound, the viability, T/C [31] was 1.84%, the viability, T/C [32] was 4.4% and the viability, T/C [33] was 1.37%. The viability, T/C [34] was 1.5%, the viability, T/C [35] was 5.71% and the viability, T/C [36] was 5.03%. The viability, T/C [37] was 0.74%, the viability, T/C [38] was 0.77% and the viability, T/C [39] was 2.69%. The viability, T/C [40] was 0.88%, the viability, T/C [41] was 5.39% and the viability, T/C [42] was 1.96%.
In the case of `COc1cccc2c1C(=O)c1c(O)c3c(c(O)c1C2=O)CC(O)(C(=O)CO)CC3OC1CC(N)C(O)C(C)O1` (stereo not drawn), the viability, T/C (compound 0.0316 µM) is reported as 75.6% and 69%, the viability, T/C (compound 0.1 µM) is reported as 76.5% and 74% and the viability, T/C (compound 0.316 µM) is reported as 43.8% and 43.9%. The viability, T/C (compound 1 µM) was 14% and 12.3%, the viability, T/C (compound 3.16 µM) was 0.38% and 0.72% and the viability, T/C (compound 10 µM) was 0.37% and 0.77%. For the same compound, the IC50 (curve of compound) was 266 nM and 257 nM.
